Consider seven molecules from ChEMBL document CHEMBL1151601, “Probing the binding site of the penicillin side-chain based on the tipper-strominger hypothesis” (1993).

The test system of experiment [1] is Staphylococcus aureus. In words: Concentration required for 90 percent inhibition of [14C]- pen-G binding to Staphylococcus aureus ATCC 25293 PBP1 87 KDa.
For experiment [2], the system named is Escherichia coli. In words: Tested for minimum inhibitory concentration against Escherichia coli DC2. The experiment is classed as functional.
For experiment [3], the system named is Staphylococcus aureus. In words: Concentration required for 90 percent inhibition of [14C]- pen-G binding to Staphylococcus aureus ATCC 25293 PBP3 75 KDa.
Experiment [4] deals with Escherichia coli. The experiment is described as follows: Concentration required for 90 percent inhibition of [14C]- pen-G binding to Escherichia coli DCO PBP2 66 KDa.
Experiment [5] concerns Escherichia coli. In words: Concentration required for 90 percent inhibition of [14C]- pen-G binding to Escherichia coli DCO PBP1a 90 KDa.
Experiment [6] concerns Escherichia coli. In words: Concentration required for 90 percent inhibition of [14C]- pen-G binding to Escherichia coli DCO PBP3 60 KDa.
For experiment [7], the system named is Staphylococcus aureus. The experiment is described as follows: Concentration required for 90 percent inhibition of [14C]- pen-G binding to Staphylococcus aureus ATCC 25293 PBP2 80 KDa.
The test system of experiment [8] is Escherichia coli. In words: Concentration required for 90 percent inhibition of [14C]- pen-G binding to Escherichia coli DCO PBP5/6 40 KDa.
Experiment [9] concerns Escherichia coli. The experiment is described as follows: Tested for minimum inhibitory concentration against Escherichia coli DCO. It is filed as functional.
Experiment [10] concerns Escherichia coli. The experiment is described as follows: Concentration required for 90 percent inhibition of [14C]- pen-G binding to Escherichia coli DCO PBP1b 90 KDa.
Experiment [11] has as its system Staphylococcus aureus. The experiment is described as follows: Tested for minimum inhibitory concentration against Staphylococcus aureus ATCC 25293. It is filed as functional.
The test system of experiment [12] is Escherichia coli. In words: Concentration required for 90 percent inhibition of [14C]- pen-G binding to Escherichia coli DCO PBP4 49 KDa.
The test system of experiment [13] is Staphylococcus aureus. In words: Concentration required for 90 percent inhibition of [14C]- pen-G binding to Staphylococcus aureus ATCC 25293 PBP4 41 KDa.
Experiment [14] has as its system Escherichia coli. In words: Concentration required for 90 percent inhibition of [14C]- pen-G binding to Escherichia coli Penicillin-binding protein (DCO PBP1a 90 KDa).
In experiment [15] the test system is Escherichia coli. In words: Concentration required for 90 percent inhibition of [14C]- pen-G binding to Escherichia coli Penicillin-binding protein (DCO PBP4 49 KDa).
For experiment [16], the system named is Escherichia coli. The experiment is described as follows: Concentration required for 90 percent inhibition of [14C]- pen-G binding to Escherichia coli Penicillin-binding protein (DCO PBP1b 90 KDa).
Experiment [17] concerns Staphylococcus aureus. In words: Concentration required for 90 percent inhibition of [14C]- pen-G binding to Staphylococcus aureus Penicillin-binding protein (ATCC 25293 PBP1 87 KDa).
In experiment [18] the test system is Escherichia coli. The experiment is described as follows: Concentration required for 90 percent inhibition of [14C]- pen-G binding to Escherichia coli Penicillin-binding protein (DCO PBP3 60 KDa).
Experiment [19] has as its system Staphylococcus aureus. The experiment is described as follows: Concentration required for 90 percent inhibition of [14C]- pen-G binding to Staphylococcus aureus Penicillin-binding protein (ATCC 25293 PBP2 80 KDa).
The test system of experiment [20] is Escherichia coli. The experiment is described as follows: Concentration required for 90 percent inhibition of [14C]- pen-G binding to Escherichia coli Penicillin-binding protein (DCO PBP5/6 40 KDa).
The subject of experiment [21] is Escherichia coli. The experiment is described as follows: Concentration required for 90 percent inhibition of [14C]- pen-G binding to Escherichia coli Penicillin-binding protein (DCO PBP2 66 KDa).

≈ marks a conversion by molar mass, not a printed value.

With `CC1(C)S[C@@H]2[C@H](NC(=O)[C@H](CCCCN)c3ccccc3)C(=O)N2[C@H]1C(=O)O`, the Concentration in the experiment with Staphylococcus aureus [1] was 100 µg/mL; in the experiment on Staphylococcus aureus [3], greater than 100 µg/mL; in the experiment on Escherichia coli [4], 30 µg/mL; in the experiment with Escherichia coli [5], 30 µg/mL; in the experiment on Escherichia coli [6] it was 10 µg/mL; in the experiment on Staphylococcus aureus [7], 100 µg/mL. Besides, the figures for the Concentration in the experiment on Escherichia coli [8], in the experiment on Escherichia coli [10] and in the experiment with Escherichia coli [12] were greater than 100 µg/mL, 100 µg/mL and 10 µg/mL, respectively. Further, the MIC against Escherichia coli [2], against Escherichia coli [9] and in the experiment on Staphylococcus aureus [11] was greater than 100 µg/mL each time.
Consider `CC1(C)S[C@@H]2[C@H](NC(=O)[C@@H](CCCCN)c3ccccc3)C(=O)N2[C@H]1C(=O)O`, for which the Concentration was 30 µg/mL in the experiment on Staphylococcus aureus [1]; greater than 100 µg/mL in the experiment with Staphylococcus aureus [3]; 30 µg/mL in the experiment with Escherichia coli [4]; 10 µg/mL with Escherichia coli [5]; 100 µg/mL in the experiment with Escherichia coli [6]; 30 µg/mL in the experiment with Staphylococcus aureus [7]. Also, the Concentration is greater than 100 µg/mL with Escherichia coli [8], 100 µg/mL in the experiment on Escherichia coli [10] and 30 µg/mL with Escherichia coli [12]. In addition, the values for the minimum inhibitory concentration (MIC) with Escherichia coli [2], in the experiment on Escherichia coli [9] and in the experiment on Staphylococcus aureus [11] were 5 µg/mL (≈ 12.3 µM), 100 µg/mL (≈ 247 µM) and 5 µg/mL (≈ 12.3 µM), respectively.
On to `CC(=O)NCCCC[C@@H](C(=O)N[C@@H]1C(=O)N2[C@@H]1SC(C)(C)[C@@H]2C(=O)O)c1ccccc1`, for which the Concentration with Staphylococcus aureus [1] is 100 µg/mL; in the experiment with Staphylococcus aureus [3], greater than 100 µg/mL; in the experiment with Escherichia coli [4], greater than 100 µg/mL; with Escherichia coli [5], greater than 100 µg/mL; in the experiment on Escherichia coli [6] it was 100 µg/mL; in the experiment on Staphylococcus aureus [7], greater than 100 µg/mL. Further, the Concentration with Escherichia coli [8] is greater than 100 µg/mL; in the experiment on Escherichia coli [10], greater than 100 µg/mL; in the experiment with Escherichia coli [12] it was 100 µg/mL. For the same molecule, the minimal inhibitory concentration (MIC) in the experiment on Escherichia coli [2] was greater than 20 µg/mL; against Escherichia coli [9], greater than 100 µg/mL; with Staphylococcus aureus [11], greater than 20 µg/mL.
`CC1(C)S[C@@H]2[C@H](NC(=O)Cc3ccccc3)C(=O)N2[C@H]1C(=O)O` [PENICILLIN G]: the Concentration is 0.1 µg/mL in the experiment on Staphylococcus aureus [1]; 0.1 µg/mL in the experiment on Staphylococcus aureus [3]; 10 µg/mL in the experiment on Escherichia coli [4]; greater than 100 µg/mL with Escherichia coli [5]; 2 µg/mL with Escherichia coli [6]; 0.1 µg/mL with Staphylococcus aureus [7]. The Concentration in the experiment with Staphylococcus aureus [13] is 10 µg/mL; in the experiment on Escherichia coli [8] it was greater than 100 µg/mL; with Escherichia coli [10], 10 µg/mL; with Escherichia coli [12], 2 µg/mL. In addition, the figures for the MIC against Escherichia coli [2], against Escherichia coli [9] and in the experiment with Staphylococcus aureus [11] were 12 µg/mL (≈ 35.9 µM), 50 µg/mL (≈ 150 µM) and less than 0.05 µg/mL, respectively.
Take `CC(=O)NCCCC[C@H](C(=O)N[C@@H]1C(=O)N2[C@@H]1SC(C)(C)[C@@H]2C(=O)O)c1ccccc1`: the Concentration is 30 µg/mL in the experiment with Staphylococcus aureus [1]; greater than 100 µg/mL in the experiment on Staphylococcus aureus [3]; 30 µg/mL in the experiment with Escherichia coli [4]; 30 µg/mL with Escherichia coli [5]; 30 µg/mL in the experiment with Escherichia coli [6]; 100 µg/mL with Staphylococcus aureus [7]. Further, the Concentration was greater than 100 µg/mL with Escherichia coli [8], 100 µg/mL in the experiment on Escherichia coli [10] and 30 µg/mL with Escherichia coli [12]. Further, the MIC in the experiment on Escherichia coli [2] was greater than 100 µg/mL; in the experiment on Escherichia coli [9], greater than 100 µg/mL; in the experiment on Staphylococcus aureus [11], 20 µg/mL (≈ 44.7 µM).
`CC1(C)SC2C(NC(=O)Cc3ccccc3)C(=O)N2[C@H]1C(=O)O` (stereo partly drawn): the Concentration in the experiment on Escherichia coli [14] was greater than 100 µg/mL; in the experiment on Escherichia coli [15], 100 µg/mL; in the experiment on Escherichia coli [16] it was greater than 100 µg/mL; with Staphylococcus aureus [17], 2 µg/mL; with Escherichia coli [18] it was 100 µg/mL; in the experiment on Staphylococcus aureus [19], greater than 100 µg/mL. Moreover, the Concentration with Staphylococcus aureus [13], in the experiment on Escherichia coli [20] and in the experiment with Escherichia coli [21] was greater than 100 µg/mL throughout. Moreover, the MIC with Staphylococcus aureus [11] is greater than 20 µg/mL.
For `CC1(C)S[C@@H]2[C@H](NC(=O)[C@H](N)c3ccccc3)C(=O)N2[C@H]1C(=O)O` [AMPICILLIN], the Concentration stood at 0.1 µg/mL with Staphylococcus aureus [1]; 0.1 µg/mL with Staphylococcus aureus [3]; 0.5 µg/mL in the experiment with Escherichia coli [4]; 2 µg/mL with Escherichia coli [5]; 2 µg/mL in the experiment on Escherichia coli [6]; 2 µg/mL with Staphylococcus aureus [7]. Also, the Concentration in the experiment on Staphylococcus aureus [13] was greater than 100 µg/mL; with Escherichia coli [8], 100 µg/mL; in the experiment on Escherichia coli [10], 10 µg/mL; with Escherichia coli [12], 0.1 µg/mL. The figures for the minimal inhibitory concentration (MIC) against Escherichia coli [2] and with Staphylococcus aureus [11] were 0.4 µg/mL (≈ 1.14 µM) and 1.6 µg/mL (≈ 4.58 µM), respectively.

Usually MIC stands for the lowest concentration found to suppress growth. Higher therefore signals a less susceptible organism.
